Columns and labels:
T6400 = test: Relative cellular accumulation of mitoxantrone determined with the compound at 2.5 uM and mitoxantrone at 10 uM on T6400 mouse cell line; type: functional
AIK-T8 = test: Ability to inhibit […] activity at 2.5 uM and 200 ng/ml PSC833 in a mitoxantrone accumulation assay on T8 human cell line; type: ADME, cell-based; conditions: aik-t8, 2.5 µM

Structure (SMILES)	Fluorescence (T6400) [%]	Fluorescence (AIK-T8) [%]
CCCCCC1c2[nH]c3ccccc3c2C[C@H]2C(=O)NC(CCC(=O)OC(C)(C)C)C(=O)N12 (stereo partly drawn)	283	592
CCC1c2[nH]c3ccccc3c2C[C@H]2C(=O)NC(CCC(=O)OC(C)(C)C)C(=O)N12 (stereo partly drawn)	80	313
CCCCCC1c2[nH]c3ccccc3c2C[C@H]2C(=O)NC(Cc3c[nH]c4ccccc34)C(=O)N12 (stereo partly drawn)	242	601
CC1NC(=O)[C@@H]2Cc3c([nH]c4ccccc34)C(C(C)C)N2C1=O (stereo partly drawn)	49	156
CC(C)CC1c2[nH]c3ccccc3c2C[C@H]2C(=O)NC(CCCCNC(=O)OC(C)(C)C)C(=O)N12 (stereo partly drawn)	305	649
CCC1c2[nH]c3ccccc3c2C[C@H]2C(=O)NC(CCCCNC(=O)OC(C)(C)C)C(=O)N12 (stereo partly drawn)	74	313
CC(C)C1c2[nH]c3ccccc3c2C[C@H]2C(=O)NC(Cc3c[nH]c4ccccc34)C(=O)N12 (stereo partly drawn)	96	310
CC(C)CC1c2[nH]c3ccccc3c2C[C@H]2C(=O)NC(CCC(=O)OC(C)(C)C)C(=O)N12 (stereo partly drawn)	348	711
CCC1c2[nH]c3ccccc3c2C[C@H]2C(=O)NC(N3CCCC3)C(=O)N12 (stereo partly drawn)	42	119
O=C1NC(N2CCCC2)C(=O)N2C(c3ccccc3)c3[nH]c4ccccc4c3C[C@@H]12 (stereo partly drawn)	54	176
O=C1NC(Cc2ccccc2)C(=O)N2C(C3CCCCC3)c3[nH]c4ccccc4c3C[C@@H]12 (stereo partly drawn)	91	
CCCCCC1c2[nH]c3ccccc3c2C[C@H]2C(=O)NC(Cc3ccccc3)C(=O)N12 (stereo partly drawn)	199	514
CCCCCC1c2[nH]c3ccccc3c2C[C@H]2C(=O)NC(C)C(=O)N12 (stereo partly drawn)	175	436
CCCCCC1c2[nH]c3ccccc3c2C[C@H]2C(=O)NC(COC(C)(C)C)C(=O)N12 (stereo partly drawn)	275	607
CC(C)(C)OC(=O)NCCCCC1NC(=O)[C@@H]2Cc3c([nH]c4ccccc34)C(c3ccccc3)N2C1=O (stereo partly drawn)	85	305
CC(C)C1c2[nH]c3ccccc3c2C[C@H]2C(=O)NC(CCC(=O)OC(C)(C)C)C(=O)N12 (stereo partly drawn)	149	381
CCC1c2[nH]c3ccccc3c2C[C@H]2C(=O)NC(C)C(=O)N12 (stereo partly drawn)	43	114
CCCCCC1c2[nH]c3ccccc3c2C[C@H]2C(=O)NC(CCCCNC(=O)OC(C)(C)C)C(=O)N12 (stereo partly drawn)	302	599
CC(C)(C)OC(=O)NCCCCC1NC(=O)[C@@H]2Cc3c([nH]c4ccccc34)C(C3CCCCC3)N2C1=O (stereo partly drawn)	278	629
CCC1c2[nH]c3ccccc3c2C[C@H]2C(=O)NC(Cc3c[nH]c4ccccc34)C(=O)N12 (stereo partly drawn)	96	354
CC(C)(C)OCC1NC(=O)[C@@H]2Cc3c([nH]c4ccccc34)C(C3CCCCC3)N2C1=O (stereo partly drawn)	276	672

Structure (SMILES)	Fluorescence (T6400) [%]	Fluorescence (AIK-T8) [%]
CCC1c2[nH]c3ccccc3c2C[C@H]2C(=O)NC(COC(C)(C)C)C(=O)N12 (stereo partly drawn)	71	225
CC(C)(C)OCC1NC(=O)[C@@H]2Cc3c([nH]c4ccccc34)C(c3ccccc3)N2C1=O (stereo partly drawn)	106	339
CC(C)CC1c2[nH]c3ccccc3c2C[C@H]2C(=O)NC(Cc3c[nH]c4ccccc34)C(=O)N12 (stereo partly drawn)	279	535
CC(C)(C)OC(=O)CCC1NC(=O)[C@@H]2Cc3c([nH]c4ccccc34)C(C3CCCCC3)N2C1=O (stereo partly drawn)	252	638
CC(C)C1c2[nH]c3ccccc3c2C[C@H]2C(=O)NC(COC(C)(C)C)C(=O)N12 (stereo partly drawn)	93	334
O=C1NC(Cc2c[nH]c3ccccc23)C(=O)N2C(c3ccccc3)c3[nH]c4ccccc4c3C[C@@H]12 (stereo partly drawn)	125	376
CC(C)C1c2[nH]c3ccccc3c2C[C@H]2C(=O)NC(CCCCNC(=O)OC(C)(C)C)C(=O)N12 (stereo partly drawn)	133	452
CC(C)CC1c2[nH]c3ccccc3c2C[C@H]2C(=O)NC(Cc3ccccc3)C(=O)N12 (stereo partly drawn)	191	431
CC(C)C1c2[nH]c3ccccc3c2C[C@H]2C(=O)NC(Cc3ccccc3)C(=O)N12 (stereo partly drawn)	104	359
CC(C)CC1c2[nH]c3ccccc3c2C[C@H]2C(=O)NC(COC(C)(C)C)C(=O)N12 (stereo partly drawn)	216	522
O=C1NC(Cc2ccccc2)C(=O)N2C(c3ccccc3)c3[nH]c4ccccc4c3C[C@@H]12 (stereo partly drawn)	112	376
CCCCCC1c2[nH]c3ccccc3c2C[C@H]2C(=O)NC(N3CCCC3)C(=O)N12 (stereo partly drawn)	119	370
O=C1NC(N2CCCC2)C(=O)N2C(C3CCCCC3)c3[nH]c4ccccc4c3C[C@@H]12 (stereo partly drawn)	85	313
CCC1c2[nH]c3ccccc3c2C[C@H]2C(=O)NC(Cc3ccccc3)C(=O)N12 (stereo partly drawn)	63	228
CC1NC(=O)[C@@H]2Cc3c([nH]c4ccccc34)C(c3ccccc3)N2C1=O (stereo partly drawn)	53	181
CC(C)C1c2[nH]c3ccccc3c2C[C@H]2C(=O)NC(N3CCCC3)C(=O)N12 (stereo partly drawn)	45	136
O=C1NC(Cc2c[nH]c3ccccc23)C(=O)N2C(C3CCCCC3)c3[nH]c4ccccc4c3C[C@@H]12 (stereo partly drawn)	158	410
CC(C)(C)OC(=O)CCC1NC(=O)[C@@H]2Cc3c([nH]c4ccccc34)C(c3ccccc3)N2C1=O (stereo partly drawn)	100	313
CC(C)CC1c2[nH]c3ccccc3c2C[C@H]2C(=O)NC(C)C(=O)N12 (stereo partly drawn)	80	333
CC(C)CC1c2[nH]c3ccccc3c2C[C@H]2C(=O)NC(N3CCCC3)C(=O)N12 (stereo partly drawn)	56	187
CC1NC(=O)[C@@H]2Cc3c([nH]c4ccccc34)C(C3CCCCC3)N2C1=O (stereo partly drawn)	74	268

Source: ChEMBL document CHEMBL1134045, “Inhibition of BCRP-mediated drug efflux by fumitremorgin-type indolyl diketopiperazines” (Bioorg Med Chem Lett, 2001)
